Test results reported in patent US11214803B2, “Modulators of YAP1 expression” (Ionis Pharmaceuticals, Inc., priority 2019, dated 2022).
Strand notation (5' to 3'): a small letter for the sugar, then the base; units joined by * are phosphorothioate-linked, units joined directly phosphodiester-linked; [ ] holds rarer units or linkages, { } end groups; capitals alone tell only the bases. k = constrained ethyl (cEt); [5mC] = 5-methylcytosine; d = 2'-deoxy (DNA)

System: Yap1 mRNA
Test: Antisense inhibition of human Yap1 in A-431 cells by cEt gapmers, single dose (Example 3, RTS36584)
Type: cell-based
Procedure, shortened: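 Human epidermoid A-431 cells take up gapmer (2,000 nM, free uptake, ~48 h); Yap1 transcript is then assayed by qRT-PCR with RiboGreen normalization and reported relative to untreated cells. Gapmers carry cEt-modified wings, phosphorothioate linkages and 5-methylcytosine throughout.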

[1] = Table 9, A-431 cells, 5,000 cells per well, free uptake, 2,000 nM, approximately 48 hours, RTS36584, normalized to RIBOGREEN, Yap1 mRNA relative to untreated control cells
[2] = Table 28, Yap1 mRNA as percent of untreated control, 3-10-3 cEt gapmers targeting SEQ ID NO.: 1, and 2
[3] = Table 11, A-431 cells, 5,000 cells per well, free uptake, 2,000 nM oligonucleotide, approx. 48 hours, primer probe set RTS36584, Yap1 mRNA normalized to RIBOGREEN, percent of untreated control
[4] = Table 26, Yap1 mRNA by 3-10-3 cEt gapmers targeting SEQ ID NO.: 1, and 2, percent of untreated control
[5] = Table 13, A-431 cells, 5,000 cells per well, free uptake, 2,000 nM modified oligonucleotide, approx. 48 hours, RTS36584, normalized to RIBOGREEN, Yap1 mRNA relative to untreated control cells
[6] = Table 35, Yap1 mRNA as percent of untreated control, 3-10-3 cEt gapmers targeting SEQ ID NO: 1 and 2, single dose
[7] = Table 29, Yap1 mRNA as percent of untreated control, 3-10-3 cEt gapmers targeting SEQ ID NO.: 1, and 2
[8] = Table 27, Yap1 mRNA by 3-10-3 cEt gapmers targeting SEQ ID NO.: 1, and 2, percent of untreated control
[9] = Table 8, A-431 cells, 5,000 cells per well, free uptake, 2,000 nM, approximately 48 hours, RTS36584, normalized to RIBOGREEN, Yap1 mRNA relative to untreated control cells
[10] = Table 10, A-431 cells, 5,000 cells per well, free uptake, 2,000 nM oligonucleotide, approx. 48 hours, primer probe set RTS36584, Yap1 mRNA normalized to RIBOGREEN, percent of untreated control
[11] = Table 12, A-431 cells, 5,000 cells per well, free uptake, 2,000 nM modified oligonucleotide, approx. 48 hours, RTS36584, normalized to RIBOGREEN, Yap1 mRNA relative to untreated control cells
[12] = Table 34, Yap1 mRNA as percent of untreated control, 3-10-3 cEt gapmers targeting SEQ ID NO: 1 and 2, single dose

## 958486 (kT*kT*kA*dG*dA*dG*d[5mC]*d[5mC]*dA*dA*d[5mC]*dT*dG*kT*kG*kA; antisense) [Compound 958486]
[1]
  YAP1 (% UTC): 9 % UTC

## 1076142 (kA*kT*kA*d[5mC]*dG*dA*dA*dA*dA*dA*dA*dG*d[5mC]*k[5mC]*kA*kA; antisense) [compound 1076142]
[2]
  YAP1 (% UTC): 38 % UTC

## 958783 (antisense kT*kG*kA*dT*d[5mC]*dT*dG*dA*dT*dG*d[5mC]*dT*dT*kG*k[5mC]*kT) [Compound 958783]
[3]
  YAP1 (% UTC): 35 % UTC

## 1076236 (kG*kG*kA*dG*dA*dA*d[5mC]*d[5mC]*dT*dT*dA*dT*dT*kT*kA*kT; antisense) [compound 1076236]
[4]
  YAP1 (% UTC): 51 % UTC

## 958560 (kG*kG*kT*dG*d[5mC]*d[5mC]*dA*d[5mC]*dT*dT*dT*dA*dA*kT*kT*k[5mC]; antisense) [Compound 958560]
[5]
  YAP1 (% UTC): 22 % UTC

## 958526 (kA*kG*kT*dA*dA*dG*dA*dA*d[5mC]*dA*dA*dT*d[5mC]*kT*kT*kG; antisense) [Compound 958526]
[1]
  YAP1 (% UTC): 6 % UTC

## 1076245 (k[5mC]*k[5mC]*kT*dA*dA*dA*dA*dA*dA*d[5mC]*dT*dA*dG*kT*kG*kA; antisense) [compound 1076245]
[6]
  YAP1 (% UTC): 101 % UTC

## 958811 (k[5mC]*kA*k[5mC]*dT*dG*dA*dG*dG*d[5mC]*dA*d[5mC]*dG*dG*k[5mC]*k[5mC]*k[5mC]; antisense) [Compound 958811]
[1]
  YAP1 (% UTC): 92 % UTC

## 1076559 (kA*kA*k[5mC]*dA*dA*dA*dT*dA*dT*dA*dG*dT*dT*kA*kG*k[5mC]; antisense) [compound 1076559]
[7]
  YAP1 (% UTC): 74 % UTC

## 1075631 (antisense k[5mC]*k[5mC]*k[5mC]*dT*dA*dT*dA*dA*d[5mC]*d[5mC]*dA*dA*dA*kT*kG*k[5mC]) [compound 1075631]
[7]
  YAP1 (% UTC): 104 % UTC

## 1075151 (kT*kT*kT*dA*dA*dA*dA*dG*dT*dA*d[5mC]*d[5mC]*dA*kG*k[5mC]*kG; antisense) [compound 1075151]
[7]
  YAP1 (% UTC): 60 % UTC

## 1075693 (k[5mC]*kA*kT*dT*dA*dA*dA*dA*dG*dT*dT*dG*dG*kG*kT*kT; antisense) [compound 1075693]
[8]
  YAP1 (% UTC): 36 % UTC

## 1075948 (antisense kG*kG*kA*d[5mC]*dT*dA*dA*dA*dG*dA*dA*dT*dA*k[5mC]*kA*kG) [compound 1075948]
[4]
  YAP1 (% UTC): 31 % UTC

## 958353 (antisense kT*k[5mC]*kG*dG*dT*d[5mC]*dT*d[5mC]*d[5mC]*dG*dA*dG*dT*k[5mC]*k[5mC]*k[5mC]) [Compound 958353]
[9]
  YAP1 (% UTC): 43 % UTC

## 958777 (antisense kG*kT*kA*dA*d[5mC]*dT*dG*dT*dT*dT*d[5mC]*dT*dA*kG*kG*kT) [Compound 958777]
[10]
  YAP1 (% UTC): 10 % UTC

## 1075663 (antisense k[5mC]*kT*kA*dA*dA*dT*dA*dG*dG*dT*dG*dG*dT*kT*kA*kT) [compound 1075663]
[7]
  YAP1 (% UTC): 80 % UTC

## 958654 (kA*kA*kT*dG*dG*dA*dG*dT*dG*dG*d[5mC]*d[5mC]*dG*kG*kG*k[5mC]; antisense) [Compound 958654]
[11]
  YAP1 (% UTC): 110 % UTC

## 1075277 (antisense kT*kT*kA*dT*dA*dA*dG*dA*dA*d[5mC]*dT*dG*dT*kG*kG*k[5mC]) [compound 1075277]
[8]
  YAP1 (% UTC): 13 % UTC

## 958764 (antisense kT*kG*kG*dG*dT*d[5mC]*dT*d[5mC]*dT*dT*dG*dA*dT*kT*kT*k[5mC]) [Compound 958764]
[11]
  YAP1 (% UTC): 34 % UTC

## 958578 (k[5mC]*kT*kT*dA*dA*dT*d[5mC]*dT*dG*dT*dG*dG*d[5mC]*kT*kA*k[5mC]; antisense) [Compound 958578]
[3]
  YAP1 (% UTC): 4 % UTC

## 958437 (antisense kA*kG*kG*d[5mC]*dA*d[5mC]*dT*d[5mC]*dG*dG*dA*d[5mC]*d[5mC]*kT*kG*k[5mC]) [Compound 958437]
[10]
  YAP1 (% UTC): 84 % UTC

## 1075727 (kT*kT*kA*dT*d[5mC]*dG*dG*dA*dG*dG*d[5mC]*dT*dT*k[5mC]*kG*k[5mC]; antisense) [compound 1075727]
[7]
  YAP1 (% UTC): 31 % UTC

## 958549 (kT*kG*kT*dA*dG*dA*d[5mC]*dA*d[5mC]*dA*dT*dA*d[5mC]*kT*k[5mC]*kT; antisense) [Compound 958549]
[11]
  YAP1 (% UTC): 8 % UTC

## 1075149 (kG*k[5mC]*kG*dG*dA*dA*dA*dA*dA*dA*d[5mC]*dA*d[5mC]*k[5mC]*kT*kA; antisense) [compound 1075149]
[8]
  YAP1 (% UTC): 50 % UTC

## 1074285 (antisense kG*k[5mC]*kA*dA*dA*dA*d[5mC]*dG*dA*dG*dG*dG*dT*k[5mC]*kA*kA) [compound 1074285]
[8]
  YAP1 (% UTC): 17 % UTC

## 1075436 (antisense k[5mC]*k[5mC]*kT*dT*dA*dA*dA*d[5mC]*dG*dA*dT*dA*dA*kA*kG*kT) [compound 1075436]
[4]
  YAP1 (% UTC): 89 % UTC

## 1074188 (antisense kG*k[5mC]*kT*dG*d[5mC]*dG*dA*dA*dG*dG*d[5mC]*dG*dG*k[5mC]*kT*kG) [compound 1074188]
[4]
  YAP1 (% UTC): 113 % UTC

## 1075468 (antisense k[5mC]*kA*k[5mC]*d[5mC]*dA*dA*dT*dA*d[5mC]*dT*dG*dA*dG*kT*kA*kT) [compound 1075468]
[4]
  YAP1 (% UTC): 91 % UTC

## 1074159 (k[5mC]*kG*kA*dG*d[5mC]*dG*dA*dG*dG*dG*d[5mC]*dT*dA*k[5mC]*kG*k[5mC]; antisense) [compound 1074159]
[7]
  YAP1 (% UTC): 77 % UTC

## 1075060 (antisense kG*kT*kT*dT*dA*dA*d[5mC]*dA*dA*dT*d[5mC]*dT*d[5mC]*k[5mC]*k[5mC]*k[5mC]) [compound 1075060]
[12]
  YAP1 (% UTC): 70 % UTC

## 1075694 (kA*k[5mC]*kA*dT*dT*dA*dA*dA*dA*dG*dT*dT*dG*kG*kG*kT; antisense) [compound 1075694]
[2]
  YAP1 (% UTC): 11 % UTC

## 1075918 (antisense k[5mC]*kT*kT*dA*dA*dA*d[5mC]*dT*dA*dA*d[5mC]*dT*dG*kT*kT*kG) [compound 1075918]
[2]
  YAP1 (% UTC): 82 % UTC

## 1075028 (antisense kA*kA*kA*dA*dA*dT*d[5mC]*dA*dA*dG*d[5mC]*d[5mC]*d[5mC]*kT*k[5mC]*kG) [compound 1075028]
[12]
  YAP1 (% UTC): 103 % UTC

## 958381 (antisense kT*k[5mC]*k[5mC]*dT*d[5mC]*dT*dG*d[5mC]*dG*d[5mC]*dG*d[5mC]*d[5mC]*k[5mC]*kG*k[5mC]) [Compound 958381]
[9]
  YAP1 (% UTC): 146 % UTC

## 1075564 (kA*kT*kA*dT*dA*dA*d[5mC]*dA*dG*dG*d[5mC]*d[5mC]*dA*k[5mC]*k[5mC]*kA; antisense) [compound 1075564]
[4]
  YAP1 (% UTC): 81 % UTC

## 1076046 (k[5mC]*kT*kT*dA*dA*dA*dT*dG*dG*dT*dG*d[5mC]*dA*kA*kT*kA; antisense) [compound 1076046]
[2]
  YAP1 (% UTC): 28 % UTC

## 958460 (antisense kT*k[5mC]*kG*d[5mC]*dA*dT*d[5mC]*dT*dG*dT*dT*dG*d[5mC]*kT*kG*k[5mC]) [Compound 958460]
[5]
  YAP1 (% UTC): 52 % UTC

## 958600 (kG*kT*kA*dG*dA*dT*d[5mC]*dT*dA*dA*dG*dA*dA*kG*k[5mC]*k[5mC]; antisense) [Compound 958600]
[5]
  YAP1 (% UTC): 8 % UTC

## 1075341 (antisense kG*k[5mC]*kT*dG*dA*dA*d[5mC]*dA*dA*dT*d[5mC]*dT*d[5mC]*k[5mC]*k[5mC]*kG) [compound 1075341]
[8]
  YAP1 (% UTC): 31 % UTC

## 958716 (antisense kA*kT*kG*dG*dA*d[5mC]*dT*dG*dT*dA*dT*dG*d[5mC]*kA*kG*k[5mC]) [Compound 958716]
[1]
  YAP1 (% UTC): 84 % UTC

## 958775 (antisense kG*kT*k[5mC]*dT*dA*dT*dA*d[5mC]*dG*dG*dG*dA*dG*kA*kT*kT) [Compound 958775]
[5]
  YAP1 (% UTC): 29 % UTC

## 1075087 (antisense kT*k[5mC]*kT*d[5mC]*dA*dA*dT*dA*dA*dG*dT*dT*dA*kT*kA*kG) [compound 1075087]
[7]
  YAP1 (% UTC): 39 % UTC

## 958602 (kT*kG*k[5mC]*d[5mC]*dA*dT*dG*dT*dT*d[5mC]*d[5mC]*dA*dT*kA*kT*kA; antisense) [Compound 958602]
[10]
  YAP1 (% UTC): 16 % UTC

## 1076468 (k[5mC]*kA*kT*dT*dA*d[5mC]*dT*dA*d[5mC]*dT*dA*dA*dG*kA*kG*kT; antisense) [compound 1076468]
[12]
  YAP1 (% UTC): 91 % UTC

## 958369 (antisense kT*kT*kA*dT*d[5mC]*dT*dA*dG*d[5mC]*dT*dT*dG*dG*kT*kG*kG) [Compound 958369]
[9]
  YAP1 (% UTC): 4 % UTC

## 1076309 (kG*kA*kT*dA*dA*d[5mC]*dT*dT*dT*d[5mC]*d[5mC]*dA*d[5mC]*kA*kA*kT; antisense) [compound 1076309]
[6]
  YAP1 (% UTC): 9 % UTC
